According to article PMC8989888, “Development of optimized drug-like small molecule inhibitors of the SARS-CoV-2 3CL protease for treatment of COVID-19” (Nature Communications, 2022):
Several values for one entry are separate records, joined by “and”; a condition that tells them apart may be missing. Equal values may be shown once. Read-outs that look alike come from different tables or passages of the source.

Molecular target: SARS-CoV-2 3CL protease (Severe acute respiratory syndrome coronavirus 2, UniProt P0DTD1)
Test: biochemical
Details: for IC90 / Protease activity (normalized) / IC50: 200 nM protease; for IC50: read-out: IC50; for activity against SARS-CoV-2 3CL protease (in words): compound 4 analogs
[1] = 0.2 µM protease with 50 µM tested compound, replicates

Row | Structure (SMILES) | Normalized SARS-CoV-2 3CL protease activity [1] | IC50 [µM] | further results
1 | CCOC(=O)C=CC(CC1CCNC1=O)NC(=O)C(CC(C)C)NC(=O)OCc1ccccc1 (stereo not shown) [AZVIII-41A] | 0.05469 and 0.07659 and 0.08287 | > 50 | IC90: > 50 µM; Protease activity (normalized) (log10[nM] 0.404879, replicates): 0.9534 and 1.001 and 1.046; Protease activity (normalized) (log10[nM] 0.882, replicates): 0.9954 and 1.035 and 1.1072; Protease activity (normalized) (log10[nM] 1.35912, replicates): 0.9788 and 1.032 and 1.063; Protease activity (normalized) (log10[nM] 1.83624, replicates): 0.8536 and 0.8662 and 0.892; Protease activity (normalized) (log10[nM] 2.31336, replicates): 0.8339 and 0.8695 and 0.9444; Protease activity (normalized) (log10[nM] 2.79048, replicates): 0.86 and 0.9004 and 0.9124; Protease activity (normalized) (log10[nM] 3.26761, replicates): 0.9439 and 0.9917 and 1.018; Protease activity (normalized) (log10[nM] 3.74473, replicates): 0.9845 and 1.046 and 1.061; Protease activity (normalized) (log10[nM] 4.22185, replicates): 0.8912 and 0.9195 and 0.9785; Protease activity (normalized) (log10[nM] 4.69897, replicates): 0.4548 and 0.5207 and 0.5344; Protease activity (normalized) (log10[nM] -0.0722425, replicates): 0.8359 and 0.8847 and 0.9024; Protease activity (normalized) (log10[nM] -0.549364, replicates): 0.7778 and 0.8128 and 0.8188
2 | CC(C)(C)OC(=O)NC(C=O)CC1CCNC1=O (stereo not shown) [AZVIII-42] | 0.09531 and 0.1273 and 0.138 |  | IC90: > 50 µM; activity against SARS-CoV-2 3CL protease (in words): functioned slightly better
3 | CC(C)(C)OC(=O)NC(CC1CCNC1=O)Cn1sc2ccccc2c1=O (stereo not shown) [AZVIII-43A] | 1.104 and 1.129 and 1.238 | > 50 | activity against SARS-CoV-2 3CL protease (in words): did not produce active compounds
4 | O=S(=O)(NCc1cccnc1)c1cccnc1 [AZVIII-44B] | 1.138 and 1.193 and 1.162 | > 50 | 
5 | O=S(=O)(NCc1ccccc1)c1ccccc1 [AZVIII-44D] | 1.234 and 1.326 and 1.299 | > 50 | 
6 | O=S(=O)(NCc1ccccc1)c1cccnc1 [AZVIII-44E] | 1.222 and 1.184 and 1.143 | > 50 | 
7 | COc1ccc(CNS(=O)(=O)c2cccnc2)cc1 [AZVIII-44H] | 0.9803 and 0.9852 and 1.015 | > 50 | 
8 | O=S(=O)(NCc1ccncn1)c1cccnc1 [AZVIII-49C] | 1.015 and 1.0173 and 1.005 | > 50 | 
9 | O=S(=O)(NCc1ccncn1)c1ccccc1 [AZVIII-49F] | 1.058 and 1.081 and 1.099 | > 50 | 
10 | O=CCN(Cc1ccccc1)S(=O)(=O)c1ccccc1 [AZVIII-57D] | 1.196 and 1.186 and 0.9817 | > 50 | 
11 | COc1ccc(S(=O)(=O)N(CC=O)Cc2ccccc2)cc1 [AZVIII-57G] | 1.117 (2×) and 1.175 (2×) and 1.168 (2×) | > 50 | 
12 | CSc1ncccc1C#N [NT-1-21] | 1.059 and 1.079 and 0.9766 |  | 
13 | CS(=O)(=O)c1ncccc1C#N [NT-1-24] | 0.9913 and 0.611 and 0.8892 |  | 
14 | CS(=O)(=O)c1nc(C(F)(F)F)ccc1C#N [NT-1-32] |  |  | Normalized SARS-CoV-2 3CL protease activity: 0.9191 and 0.9056 and 0.7525
